# Measurements taken from patent US20240279687A1, “PEPTIDE NUCLEIC ACIDS FOR SPATIOTEMPORAL CONTROL OF CRISPR-CAS BINDING” (Yale University, priority 2021, published 2024).
# {Lys} = L-lysine residue attached to the PNA terminus
# Experiments:
# [1] = test system: 20mer RNA oligonucleotide (spacer sequence designed to target the BFP gene); experiment: UV spectroscopy thermal melting analysis of duplexes; type: binding; settings: 1 μM each strand, 10 mM sodium phosphate buffer pH 7.4
# Experimental: All samples were prepared by mixing a stoichiometric amount of each strand (1 μM) in 10 mM sodium phosphate buffer at pH 7.4 (Table 8). The samples were pre-annealed at 95° C. for 5 mins and gradually cooled to room temperature prior to the melting experiment. UV melting experiments were performed using a Shimadzu UV-3600 Plus UV-Vis-NIR spectrophotometer equipped with a thermoelectrically controlled multicell holder. UV melting spectra were recorded after every 1° C. temperature change by monitoring the absorbance at 260 nm from 20° C. to 110° C. to 20° C., with a heating/cooling ramp rate of 1.0° C./min. The heating and cooling curves were overlapped to confirm reversible denaturation. All spectra were plotted on Origin 2020 and smoothed using a 20-point adjacent averaging algorithm. The first derivative plots of the melting curves were generated to determine the melting temperature for each duplex.
# [2] = test system: Cas9 RNP using a sgRNA targeted to the BFP gene; experiment: Cas9 RNP editing of BFP reporter gene in K562-BFP cells (BFP fluorescent drop out, flow cytometry); type: cell-based, human; settings: for inhibitory effect on Cas9-mediated BFP gene disruption and indel formation: 0-250 pmol nucleofected 2 hours prior to Cas9 RNP
# Experimental: (§1) For Cas9 RNP assembly, 50 pmol of sgRNA (IDT, Alt-R CRISPR-Cas9 sgRNA) and 45 pmol of SpCas9 (CPO2, PNA BIO) were incubated at room temperature for 10 minutes in a 5 μL reaction in 1×3.1 Buffer (B7203S, NEB). For nucleofections, 1×10^6 cells, 5 μL Cas9 RNP, and 1 μL of Alt-R Cas9 electroporation enhancer (IDT) were resuspended in 100 μL of Lonza cell line solution (V4XC-2024/V4XC-1024, Lonza) and nucleofected using a Lonza 4D-Nucleofector X unit. Cas9 RNP treated cells were seeded in 2 mL of complete media and incubated for 96 hours prior to harvesting for analysis.
# (§2) For PNA pre-treatments, 1×10^6 cells and 1 μL of PNA diluted to desired concentration in water were similarly nucleofected using Lonza cell line kits and 4D-Nucleofector. PNA nucleofected cells were resuspended in 1.25 mL of complete media in 1.5 mL tubes and incubated at 37° C. for 2 hours before Cas9 RNP nucleofection as described above. After Cas9 RNP nucleofection cells were seeded in 2 mL of complete media and incubated for 96 hours prior to harvesting and analysis.
# K562 cells were spun down and resuspended in fresh complete media at 300,000 cells/mL 48 hours prior to analysis. Samples for flow cytometry were fixed in complete media with 1% formaldehyde for 15 minutes before spinning down, resuspending in 300 μL PBS, and filtering through a cell strainer capped tube. Samples were analyzed for BFP and GFP fluorescence using a Cytoflex LX instrument (Beckman Coulter) using PacificBlue and FITC lasers, respectively, and quantification and gating was done using FloJo v10 software. Background fluorescent drop out was determined by measurement of mock nucleofected lines in quadruplicate and subtracted from experimental values to determine reported editing frequency.
# 10^6 stable BFP-expressing K562 cells were nucleofected (Lonza 4D Nucleofector) with a specified dose of PNA or ssDNA oligo (0-250 pmol). Two hours later, all conditions were nucleofected with 45 pmol of purified Cas9 RNP using a sgRNA targeted to the BFP gene. 72 hours later, cells with BFP fluorescent drop out (via Cas9 indel formation) were quantified by flow cytometry (Beckman Coulter—Cytoflex instrument).
# In time-course experiments in FIG. 3D, K562 samples were nucleofected with 5 μL RNP reactions with the addition of 100 pmol of ssODN donor in 1 μL of water. RNP nucleofected samples were incubated at 37° C. in complete media before being spun down and nucleofected with 250 pmol of PNA at specified time points. After PNA delivery cells were seeded in 2 mL of complete media and incubated for 96 hours prior to harvesting and analysis.
# 10^6 stable BFP-expressing K562 cells were nucleofected (Lonza 4D Nucleofector) with specified dose (0-250 pmol, or 250 pmol if unspecified) of specified PNA with sequences homologous to (antispacer) or identical to (cis-spacer) the BFP gRNA spacer sequence. Two hours later, all conditions were nucleofected with 45 pmol of purified Cas9 RNP using a sgRNA targeted to the BFP gene. 72 hours later, cells with BFP fluorescent drop out (via Cas9 indel formation) were quantified by flow cytometry (Beckman Coulter—Cytoflex instrument).
# 10^6 stable BFP-expressing K562 cells were nucleofected (Lonza 4D Nucleofector) with 45 pmol of purified Cas9 RNP using a sgRNA targeted to the BFP gene. At each specified time point 250 pmol of BFP Anti-protospacer PNA were introduced via nucleofection. For “Cas9 only” condition there was no second PNA nucleofection and for “0 hrs” 250 pmol of PNA was co-nucleofected with Cas9 in a single reaction. After each nucleofection samples were left in fresh media for the duration of the experiment to acquire edits. 72 hours after the “24 hrs” nucleofection, cells for all conditions with BFP fluorescent drop out (via Cas9 indel formation) were quantified by flow cytometry (Beckman Coulter—Cytoflex instrument).
# dCas9-VPR / POU5F1 sgRNA = experiment: CRISPRa (dCas9-VPR) POU5F1 expression in stable K562 cells, RT-qPCR; type: cell-based, human; settings: 250 pmol PNA
# Experimental: Stable K562-hEF1α-dCas9-VPR line was established by lentiviral transduction using Edit-R purified lentiviral particles (Horizon Discovery) and blasticidin selection (5 μg/mL, A1113903, Gibco). dCas9-VPR integration was confirmed by western blot with CRISPR-Cas9 antibody (7A9-3A3, Novus). dCas9-VPR expressing line was further transduced with Edit-R CRISPRa human POU5F1 sgRNA purified lentiviral particles (VSGH11902, Horizon Discovery, Table 4) and puromycin selection (2 μg/mL, Gibco).
# 4×10^6 stable dCas9-VRP/POU5F1 sgRNA expressing K562 cells (generated using lentivirus from Horizon Discovery), or K562 cells, were nucleofected with 250 pmol of specified PNA (non-targeting BFP or POU5F1) using a Lonza 4D nucleofector. At each specified time point 500 μL of cells were removed from each condition flask, spun down, and frozen. RNA was extracted from each pellet using QIAGEN Rneasy Mini Kits and cDNA was generated using Applied Biosystems High Capacity cDNA reverse transcription kit. rtPCR reactions were conducted for each sample using a StepOnePLUS Real-Time PCR System (Applied Biosystems) using Taqman Fast Advanced Master Mix and TaqMan gene specific probes for POU5F1 and GAPDH. Expression relative to the untreated parent K562 line was recorded as fold-change and calculated using the ΔΔCT method.
# For RNA extractions 0.5×10^6 K562 cells were spun down, washed once with PBS, homogenized using QIAshredder columns (QIAGEN 79656) and processed using QIAGEN RNeasy mini kits (74106) before eluting in 50 μL of water. Resulting RNA was used as input for high-capacity cDNA Reverse Transcription Kit (Applied Biosystems) and resulting reaction was diluted 1:5 with water. RT-qPCR reactions were conducted in triplicate for each sample using a StepOnePLUS Real-Time PCR System (Applied Biosystems) and Taqman Fast Advanced Master Mix (Applied Biosystems) with TaqMan gene specific probes (Table 8). Expression relative to the untreated K562 parent line was recorded as fold-change and calculated from averaged CT values using the ΔΔCT method.
# [3] = test system: Cas9 RNP using a sgRNA targeted to the HBB gene (R-01); experiment: Cas9 RNP editing at HBB in K562 cells (amplicon sequencing); type: cell-based, human
# Experimental: as §1, §2
# 10^6 stable BFP-expressing K562 cells were nucleofected (Lonza 4D Nucleofector) with a specified dose of BFP cis-protospacer PNA or HBB PNA (0-250 pmol). Two hours later, all conditions were nucleofected with 45 pmol of purified Cas9 RNP using a sgRNA targeted to the BFP gene or targeted to the HBB gene (R-01). 72 hours later, cells with BFP fluorescent drop out (via Cas9 indel formation) were quantified by flow cytometry (Beckman Coulter Cytoflex instrument) for the BFP target (FIG. 3A). For the HBB target (FIG. 3B-3C), 72 hours post-treatment gDNA was extracted (Promega ReliaPrep) and the region of interest was PCR amplified (NEB Phusion). Indel frequency was measured by T7 endonuclease assay (NEB—EnGen Mutation Detection Kit).
# (§3) Genomic DNA was purified from 0.5×10^6 cells using Promega ReliaPrep gDNA Tissue Miniprep System (A2052) and eluted in 50 μL of water. Library prep used 100 ng of gDNA input with Ampliseq for Illumina Library Plus kit (20019101, Illumina) and used a custom primer pool designed to amplify a designed panel of genomic targets of interest (Table 9). Libraries were indexed, pooled, and loaded onto a Mid-output (300-cycles, Illumina, FC-420-1004) cartridge for paired-end sequencing on an Illumina Miniseq instrument. FASTQ reads were subjected to quality analysis (Basespace FASTQC) and analyzed for indel frequency using Cas-Analyzer assessment tool (parameters: Comparison range (R)—both ends of full amplicon sequence, Minimum frequency (n)=1). gRNAs used in this study are listed in Table 8, amplicon genomic coordinates listed in Table 9.
# [4] = test system: Cas9 RNP (FANCF, EMX1, ZSCAN2, CCR5, VEGFA gRNAs); experiment: On-target specificity of Cas9 RNP (ratio of on-target to off-target editing rates); type: cell-based, human
# Experimental: as §2, §3
# In the case of EMX1 ON and OFF target amplicons, both regions were amplified from 200 ng of purified gDNA by Phusion High-Fidelity Polymerase (NEB, M0530S) and pooled and purified using QIAGEN PCR purification kit (28104, Qiagen). Library prep used 200 ng of purified amplicon input with Illumina DNA Prep kit (20025519, Illumina). EMX1 libraries were similarly indexed, pooled, sequenced, and analysed as above.
# For pre-annealed PAM-distal PNA experiments, 50 pmol of sgRNA and 50 pmol of PAM-distal 10mer PNAs were incubated in a thermocycler at 37° C. for 30 minutes in a 5 μL reaction in 1×3.1 Buffer (B7203S, NEB) to allow annealing. PNA annealing to sgRNAs was confirmed by gel shift on 5% polyacrylamide gel. 45 pmol of SpCas9 (CP02, PNA BIO) was then added at room temperature and incubated for 10 minutes to allow RNP formation. Resulting reaction was delivered to 1×10^6 K562 cells by a single nucleofection and treated as described above.
# [5] = 150 pmol dose, three replicates
substance,measurement,setting,value
"AUGGCGUGCAGUGCUUCAGC (chemistry not given here) [Antispacer RNA (melting study), complementary RNA oligomer (length 20nt), IDT]",Tm of duplex with RNA spacer sequence,[1],69 °C
"K-GTGCTTCAGC-K (all peptide nucleic acid (PNA), 5' {Lys}, 3' {Lys}) [BFP PAM-distal PNA]",inhibitory effect on Cas9-mediated BFP gene disruption and indel formation,[2],attenuated effect
same,reduction of BFP editing,[2]; 50 pmol dose,10%
same,reduction of BFP editing,[2]; 250 pmol dose,32%
"KKK-CCACCATTAGGCAAACATCC-KKK (all peptide nucleic acid (PNA), 5' {Lys}-{Lys}-{Lys}, 3' {Lys}-{Lys}-{Lys}) [POU5F1 CRISPRa PNA]",duration of the full effect,dCas9-VPR / POU5F1 sgRNA,2 to 3 days
same,effect on CRISPRa upregulated POU5F1 expression,dCas9-VPR / POU5F1 sgRNA,down to the level of the parental K562 line
same,time after treatment at which the effect appears to dissipate,dCas9-VPR / POU5F1 sgRNA,approximately 5 days
same,time by which POU5F1 expression dropped to the level of the parent line expression,dCas9-VPR / POU5F1 sgRNA,≤ 48 h
same,time by which expression began to return to its upregulated baseline,dCas9-VPR / POU5F1 sgRNA,≤ 120 h
"K-ATGGCGTGCA-K (all peptide nucleic acid (PNA), 5' {Lys}, 3' {Lys}) [BFP PAM-proximal PNA]",reduction of BFP editing,[2]; 50 pmol dose,96.0%
same,reduction of BFP editing,[2]; 250 pmol dose,99.7%
same,fold reduction in editing,[2]; 1:1 PNA:sgRNA molar ratio (50 pmol),24.5 fold
same,fold reduction in editing,[2]; 5:1 PNA:sgRNA ratio (250 pmol),342.6 fold
"KKK-ATGGCGTGCAGTGCTTCAGC-KKK (all peptide nucleic acid (PNA), 5' {Lys}-{Lys}-{Lys}, 3' {Lys}-{Lys}-{Lys}) [BFP Antispacer PNA]",inhibitory effect on Cas9-mediated BFP gene disruption and indel formation,[2],robust dose-dependent inhibitory effect
same,block of indel formation (NHEJ) and template-mediated editing (HDR) when PNA is introduced after Cas9 RNP,[2]; 250 pmol PNA at time-points up to 24 hours after Cas9 RNP/ssODN nucleofection,rapidly and proportionally block both indel formation (NHEJ) and template-mediated editing (HDR)
same,Tm of duplex with RNA spacer sequence,[1],> 100 °C
"CCAACTGCAT (all peptide nucleic acid (PNA); further chemistry not fully specified) [HBB R-01 PAMprox 10 mer PNA, 1 Lysine (K) on either end]",HBB editing,[3]; 50 pmol PNA (45.2% without PNA),0.102%
same,mean fold reduction of HBB target editing,[3]; [5],"2,372 fold"
same,"total indels detected across 28,104 analyzed amplicons",[3]; [5],6
same,fold reduction of HBB target editing,[3]; 1:1 PNA:sgRNA ratio (50 pmol),443 fold
KKK-GGGTTAAGGCAATAGCAATA-KKK [GFP Non-Targeting PNA],inhibitory effect on Cas9-mediated BFP gene disruption and indel formation,[2]; listed as heterologous GFP PNA,no effect
same,inhibitory effect on Cas9-mediated BFP gene disruption and indel formation,[2]; listed as non-targeting (GFP) PNA,entirely ineffective
"K-GTGCAGTGCT-K (all peptide nucleic acid (PNA), 5' {Lys}, 3' {Lys}) [BFP PAM-middle PNA]",fold reduction in editing,[2]; 5:1 PNA:sgRNA ratio (250 pmol),32.4 fold
GCTCGGACTC (all peptide nucleic acid (PNA); further chemistry not fully specified) [EMX1 PAMdist 10 mer PNA],specificity ratio versus Cas9 only,"[4]; K562, HEK293, and U2OS cell lines, PNA pre-treatment prior to Cas9 RNP nucleofection",significantly increased specificity ratios
same,specificity versus pre-treatment approaches,"[4]; PNA pre-annealed to sgRNA prior to Cas9 RNP formation, delivered as a single complex, K562",further improved specificity
